{
  "source": "paper PMC3949708",
  "about": "“Identification and Biosynthesis of a Novel Xanthomonadin-Dialkylresorcinol-Hybrid from Azoarcus sp. BH72” (PLoS ONE, 2014)",
  "key": {"ArcT": {"biological_target": "T1, ArcT (Azoarcus olearius, UniProt A1K222)", "T1 construct": "gene azo0260; full gene; CherryTag-His6 fusion cut off with TEV protease; E. coli BL21 (DE3) Star", "T1 sequence (A1K222 entry or part of it)": "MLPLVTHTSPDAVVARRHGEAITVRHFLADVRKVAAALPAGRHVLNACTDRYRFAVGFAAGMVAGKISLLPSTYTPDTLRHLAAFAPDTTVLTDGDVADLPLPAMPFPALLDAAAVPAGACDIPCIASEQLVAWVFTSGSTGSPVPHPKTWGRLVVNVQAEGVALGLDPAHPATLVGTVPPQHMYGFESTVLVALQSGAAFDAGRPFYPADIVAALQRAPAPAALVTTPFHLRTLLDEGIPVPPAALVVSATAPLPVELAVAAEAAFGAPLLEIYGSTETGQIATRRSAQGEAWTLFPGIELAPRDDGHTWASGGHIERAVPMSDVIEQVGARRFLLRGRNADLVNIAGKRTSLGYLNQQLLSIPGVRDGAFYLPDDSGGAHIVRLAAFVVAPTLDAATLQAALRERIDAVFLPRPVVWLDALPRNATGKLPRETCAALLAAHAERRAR", "assay": "MALDI-MS ATP-pyrophosphate isotopic exchange", "format": "biochemical", "conditions": "MgCl2, pyrophosphate, 20 mM Tris pH 7.4"}, "ArcB": {"biological_target": "T2, ArcB (Azoarcus olearius, UniProt A1KCI0)", "T2 construct": "gene azo3920; full gene; CherryTag-His6 fusion cut off with TEV protease; E. coli BL21 (DE3) Star", "T2 sequence (A1KCI0 entry or part of it)": "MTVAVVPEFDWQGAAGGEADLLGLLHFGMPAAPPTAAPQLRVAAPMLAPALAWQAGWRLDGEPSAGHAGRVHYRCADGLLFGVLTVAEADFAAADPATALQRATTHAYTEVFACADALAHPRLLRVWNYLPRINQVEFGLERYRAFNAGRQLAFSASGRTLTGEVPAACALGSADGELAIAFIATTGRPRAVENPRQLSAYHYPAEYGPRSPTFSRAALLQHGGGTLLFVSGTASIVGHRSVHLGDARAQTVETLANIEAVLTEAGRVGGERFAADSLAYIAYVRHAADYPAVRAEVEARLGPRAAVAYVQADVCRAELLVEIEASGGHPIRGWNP", "assay": "GC-MS product detection after MSTFA derivatization", "format": "biochemical", "conditions": "1 mM substrate, 2 µg ArcB, 100 mM Tris pH 7.4, 37 °C, 10 or 60 min"}},
  "data": [
    {"smiles": "O=C(O)c1cccc(O)c1", "note": "[3-hydroxybenzoic acid]", "values": [
      {"measurement": "MALDI-MS ATP-pyrophosphate isotopic exchange", "setting": "ArcT; adenylation, [γ-18O4]-ATP", "value": "MALDI-MS analysis showed ATP-label exchange in assays with 3-HBA"},
      {"measurement": "GC-MS product detection after MSTFA derivatization", "setting": "ArcB; formed from chorismic acid", "value": "3-HBA was only detectable in assays containing ArcB"}
    ]},
    {"smiles": "Nc1ncnc2c1ncn2[C@@H]1O[C@H](COP(=O)(O)OP(=O)(O)OP(=O)(O)O)[C@@H](O)[C@H]1O", "note": "[[γ-^18O4]-ATP]", "values": [
      {"measurement": "MALDI-MS ATP-pyrophosphate isotopic exchange", "setting": "ArcT; 3-HBA as co-substrate, labelled compound", "value": "MALDI-MS analysis showed ATP-label exchange in assays with 3-HBA"}
    ]},
    {"smiles": "C=C(O[C@@H]1C=C(C(=O)O)C=C[C@H]1O)C(=O)O", "note": "[chorismic acid]", "values": [
      {"measurement": "GC-MS product detection after MSTFA derivatization", "setting": "ArcB", "value": "3-HBA was only detectable in assays containing ArcB"}
    ]}
  ]
}
